Laboratory results as given in PubChem BioAssay AID256 (DTP/NCI, 2004).
Toxic doses and inconclusive results are not listed. Rule for the calls: active = survival T/C of 150% or more; inactive = T/C below 125% in these data.

Test system: CD2F1 mice, L1210 leukemia ip, survival T/C
Assay: NCI In Vivo Anticancer Drug Screen. Data for tumor model L1210 Leukemia (intraperitoneal) in CD2F1 (CDF1) mice
Details: endpoint: mean survival time, higher = longer survival
Summary of the method: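 Implant tumor; dose compound or vehicle; measure endpoint in both groups; report treated divided by control.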

[1] = dose: 25.0 mg/kg/injection, schedule: Q01DX009 (ip), vehicle: saline with Tween-80
[2] = dose: 50.0 mg/kg/injection, schedule: Q01DX009 (ip), vehicle: saline with Tween-80
[3] = dose: 100.0 mg/kg/injection, schedule: Q01DX009 (ip), vehicle: saline with Tween-80
[4] = dose: 100.0 mg/kg/injection, schedule: Q04DX003 (ip), vehicle: saline with Tween-80
[5] = dose: 12.5 mg/kg/injection, schedule: Q01DX009 (ip), vehicle: saline with Tween-80
[6] = dose: 100.0 mg/kg/injection, schedule: Q04DX003 (ip), vehicle: saline
[7] = dose: 200.0 mg/kg/injection, schedule: Q01DX009 (ip), vehicle: saline with Tween-80
[8] = dose: 200.0 mg/kg/injection, schedule: Q04DX003 (ip), vehicle: saline
[9] = dose: 400.0 mg/kg/injection, schedule: Q01DX009 (ip), vehicle: saline with Tween-80
[10] = dose: 400.0 mg/kg/injection, schedule: Q04DX003 (ip), vehicle: saline
[11] = dose: 200.0 mg/kg/injection, schedule: Q04DX003 (ip), vehicle: saline with Tween-80
[12] = dose: 400.0 mg/kg/injection, schedule: Q04DX003 (ip), vehicle: saline with Tween-80
[13] = dose: 200.0 mg/kg/injection, schedule: Q04DX002 (ip), vehicle: saline with Tween-80
[14] = dose: 400.0 mg/kg/injection, schedule: Q04DX002 (ip), vehicle: saline with Tween-80
[15] = dose: 12.5 mg/kg/injection, schedule: Q01DX005 (ip), vehicle: water
[16] = dose: 25.0 mg/kg/injection, schedule: Q01DX005 (ip), vehicle: water
[17] = dose: 50.0 mg/kg/injection, schedule: Q01DX005 (ip), vehicle: water
[18] = dose: 100.0 mg/kg/injection, schedule: Q01DX005 (ip), vehicle: water
[19] = dose: 200.0 mg/kg/injection, schedule: Q01DX005 (ip), vehicle: water

Measured: T/C

CCCN(CCC)S(=O)(=O)c1ccc(NC(=O)OC2CCCCCC2)cc1
inactive: dose: 100.0 mg/kg/injection, schedule: Q01DX001 (ip), vehicle: saline 104 % of control | dose: 200.0 mg/kg/injection, schedule: Q01DX001 (ip), vehicle: saline 108 % of control | dose: 400.0 mg/kg/injection, schedule: Q01DX001 (ip), vehicle: saline 104 % of control

CCOC(=O)/C(C#N)=C(\C)c1cccc(C)c1
inactive: [1] 102 % of control | [2] 98 % of control | [3] 103 % of control | [4] 105 % of control

CCc1ccc(C(=O)O)cc1S(=O)(=O)Cl
inactive: [5] 101 % of control | dose: 12.5 mg/kg/injection, schedule: Q04DX003 (ip), vehicle: saline with Tween-80 104 % of control | [1] 97 % of control | dose: 25.0 mg/kg/injection, schedule: Q04DX003 (ip), vehicle: saline with Tween-80 101 % of control | [2] 95 % of control | dose: 50.0 mg/kg/injection, schedule: Q04DX003 (ip), vehicle: saline with Tween-80 103 % of control | [4] 97 % of control

COc1ccc(N=C(c2ccccc2)c2ccccc2)cc1
inactive: [3] 95 % of control | [6] 89 % of control | [7] 97 % of control | [8] 101 % of control | [9] 91 % of control | [10] 101 % of control

CCC1(CC)CCC(Br)C(Br)C1 (stereo not given)
inactive: [3] 94 % of control | [4] 95 % of control | [7] 94 % of control | [11] 98 % of control | [9] 89 % of control | [12] 93 % of control

N#CSCc1ccc(Cl)cc1
inactive: dose: 6.25 mg/kg/injection, schedule: Q01DX009 (ip), vehicle: saline with Tween-80 98 % of control | [5] 96 % of control | [1] 106 % of control

COc1ccccc1C1=CCCCCC1
inactive: [3] 107 % of control | [7] 107 % of control

CC(S(N)(=O)=O)S(N)(=O)=O
inactive: dose: 100.0 mg/kg/injection, schedule: Q01DX001 (ip), vehicle: saline with Tween-80 105 % of control | dose: 200.0 mg/kg/injection, schedule: Q01DX001 (ip), vehicle: saline with Tween-80 102 % of control | dose: 400.0 mg/kg/injection, schedule: Q01DX001 (ip), vehicle: saline with Tween-80 94 % of control

CC(C)CSCC1OC(n2cnc3c(N)nccc32)C(O)C1O (stereo not given)
inactive: dose: 3.13 mg/kg/injection, schedule: Q03HX024 (ip), vehicle: distilled water + Tween-80 100 % of control | dose: 6.25 mg/kg/injection, schedule: Q03HX024 (ip), vehicle: distilled water + Tween-80 105 % of control | dose: 12.5 mg/kg/injection, schedule: Q01DX005 (ip), vehicle: distilled water + Tween-80 107 % of control | dose: 12.5 mg/kg/injection, schedule: Q03HX024 (ip), vehicle: distilled water + Tween-80 96 % of control | dose: 25.0 mg/kg/injection, schedule: Q01DX005 (ip), vehicle: distilled water + Tween-80 115 % of control | dose: 25.0 mg/kg/injection, schedule: Q03HX024 (ip), vehicle: distilled water + Tween-80 100 % of control | dose: 50.0 mg/kg/injection, schedule: Q01DX005 (ip), vehicle: distilled water + Tween-80 100 % of control | dose: 50.0 mg/kg/injection, schedule: Q03HX024 (ip), vehicle: distilled water + Tween-80 96 % of control | dose: 100.0 mg/kg/injection, schedule: Q01DX005 (ip), vehicle: distilled water + Tween-80 88 % of control | dose: 100.0 mg/kg/injection, schedule: Q03HX024 (ip), vehicle: distilled water + Tween-80 86 % of control

C=C(Br)CNC(=O)CCCl
inactive: dose: 1.56 mg/kg/injection, schedule: Q01DX009 (ip), vehicle: other 102 % of control | dose: 3.13 mg/kg/injection, schedule: Q01DX009 (ip), vehicle: other 103 % of control | dose: 6.25 mg/kg/injection, schedule: Q01DX009 (ip), vehicle: other 100 % of control | dose: 6.25 mg/kg/injection, schedule: Q04DX003 (ip), vehicle: other 103 % of control | dose: 12.5 mg/kg/injection, schedule: Q04DX003 (ip), vehicle: other 100 % of control | dose: 25.0 mg/kg/injection, schedule: Q04DX003 (ip), vehicle: other 105 % of control

CCCCCCCCCCCOc1ccccc1Cl
inactive: dose: 100.0 mg/kg/injection, schedule: Q04DX002 (ip), vehicle: saline with Tween-80 90 % of control | [13] 93 % of control | [14] 93 % of control

CCOC(=O)C(C=O)(CC)C(=O)OCC
inactive: [3] 97 % of control | [7] 94 % of control | [9] 103 % of control

CCOC(=O)Nc1ccc(C(=O)O)c(O)c1
inactive: [4] 96 % of control | [11] 96 % of control | [12] 100 % of control

NNS(=O)(=O)c1ccc(Oc2ccc(S(=O)(=O)NN)cc2)cc1
inactive: dose: 50.0 mg/kg/injection, schedule: Q01DX009 (ip), vehicle: Klucel (hydroxypropylcellulose) (HPC) 101 % of control | dose: 100.0 mg/kg/injection, schedule: Q01DX009 (ip), vehicle: Klucel (hydroxypropylcellulose) (HPC) 96 % of control | dose: 200.0 mg/kg/injection, schedule: Q01DX009 (ip), vehicle: Klucel (hydroxypropylcellulose) (HPC) 108 % of control

Cc1cc(C(O)CNCCCn2c(N3CCOCC3)nc3c2c(=O)n(C)c(=O)n3C)ccc1O (stereo not given)
inactive: [15] 96 % of control | [16] 97 % of control | [17] 97 % of control | [18] 96 % of control | [19] 100 % of control

COc1cc2nc(C(O)C(O)c3nc4cc(OC)c(OC)cc4[nH]3)[nH]c2cc1OC (stereo not given)
inactive: [4] 101 % of control | [11] 98 % of control

N#CCCN=C1C=CC(=C(c2ccc(NCCC#N)cc2)c2ccccc2Cl)C=C1
inactive: [13] 93 % of control | [14] 103 % of control

O=c1nc(N2CCOCC2)ccn1C1OC(CO)C(O)C1O (stereo not given)
inactive: [18] 104 % of control | [19] 101 % of control | dose: 400.0 mg/kg/injection, schedule: Q01DX005 (ip), vehicle: water 107 % of control

COC(=O)c1ccc(SSc2ccc(C(=O)OC)cc2[N+](=O)[O-])c([N+](=O)[O-])c1
inactive: [4] 103 % of control | [11] 96 % of control | [12] 96 % of control

Nc1nc(Cl)ncc1C1OC(CO)C(O)C1O (stereo not given)
inactive: [15] 91 % of control | [16] 95 % of control | [17] 91 % of control | [18] 87 % of control | [19] 98 % of control

COc1ccc(NC(=O)Oc2ccccc2-c2ccccc2)cc1
inactive: [3] 98 % of control | [7] 89 % of control | [9] 89 % of control

N#C[Se]C[Se]C#N
inactive: dose: 6.25 mg/kg/injection, schedule: Q01DX001 (ip), vehicle: saline with Tween-80 104 % of control

N[C@@H]1CCCC[C@H]1N.O=C([O-])C(=O)[O-].[Pt+4]
inactive: dose: 0.78 mg/kg/injection, schedule: Q04DX003 (ip), vehicle: saline 120 % of control

C1CN2CCOB(O1)OCC2
inactive: [6] 94 % of control | [8] 98 % of control | [10] 93 % of control
